Entries after “also recorded” stand apart in the source; their conditions may differ.
Key:
cervix of pregnant rats = assay: Cervical ripening assessed in vivo by collagen light-induced fluorescence (LIF) with the collascope; design: species or system Sprague-Dawley rats
Description: (§1) Nonpregnant and timed-pregnant Sprague-Dawley rats (200-250 g) from Charles-River Laboratories (Wilmington, Mass., USA) were delivered to animal care facilities on day 12 of gestation (day 1 being the day when a sperm plug was observed). The animals were housed separately, with free access to food and water and maintained on a constant 12-hour light-dark cycle. Control pregnant rats were spontaneously delivering on day 22 and 23 of gestation. For the measurements with the collascope the animals were anaesthetized (interperitoneal (i.p). injection) with a combination of xylazine (Gemini, Burns Veterinary Supply Inc, Rockville Center, N.Y., USA) and ketamine HCl (Ketaset; Fort Dodge Laboratories Inc, Fort Dodge, Iowa, USA). The animals were randomly allocated to one of the groups and sacrificed by carbon dioxide inhalation on day 3, 5, 7 and 10 postpartum or on day 25 of pregnancy in the groups with delayed delivery. All procedures were approved by the Animal Care and Use Committee of the St. Joseph's Hospital and Medical Center in Phoenix.
(§2) Prior to any treatment LIF measurements were made in control rats throughout pregnancy and postpartum to estimate the LIF profile during gestation (see FIG. 1). Pregnant rats (N=6/group) were treated (see FIG. 2), when not otherwise mentioned (see FIG. 3), from day 13 of pregnancy until delivery. Single daily treatments were performed at 8 a.m. and twice a day treatments at 8 a.m. and 8 p.m. All single injections (4 mg P4, 10 mg 17P, 2 mg promegestone (R5020)) were by the subcutaneous route (s.c.) in sesame oil (0.2 ml), which was also used for the controls. Vaginal gels were applied twice a day with a blunt ball-top needle deep into the vagina. Crinone was used for the P4 vaginal group (equivalent volumes of Crinone were used for 2-15 mg P4/treatment), all data presented show the results of the highest dose (total daily dose of 30 mg P4=⅓ of a applicator of 8% Crinone that contains 90 mg P4). For the vaginal promegestone (R5020) group micronized promegestone (R5020) (1 mg/treatment) was mixed into 0.18 ml of Replens. The control rats for the vaginal groups were treated with Replens (0.18 ml/treatment). For oral P4 treatments (15 mg, bid, vehicle sesame oil or H2O, volume 1 ml) gavage was used. For topical P4 treatment (15 mg, bid, P4 in 1 ml sesame oil, fish oil or in Replens) the drug was applied on the back of animals that were shaved on day 13, 17 and 21. In some animals (N=6) RU-486 (3 mg in 0.2 ml sesame oil) was injected subcutaneously once on day 16 of gestation.
The amount of cervical collagen was evaluated in vivo (only in group subcutaneously P4, vaginal P4, subcutaneously 17P, vaginal promegestone (R5020), subcutaneously RU-486) by measurement of the auto-fluorescent properties of cross-linked collagen with a new prototype of an instrument, termed collascope (Reproductive Research Technologies, Houston, Tex., USA), as used previously with an earlier prototype.
After insertion of a small speculum into the vagina of the anesthetized animal, the optical probe of the collascope was placed on the surface of the exocervix. […] The exposure time for excitation was 100 msec. The average of 20 measurements of the detected fluorescent intensity (photon count) at 390 nm was used for each animal at any given time. Measurements of cervical light-induced fluorescence (LIF) were performed on nonpregnant animals once and in pregnant animals every other day starting at day 13 of gestation until delivery and on postpartum day 3 and/or postpartum day 5 (see FIGS. 2 and 3), and for some animals also on postpartum days 7 and 10 (see FIGS. 1 and 3).
The cervical LIFs obtained at different times of gestation (FIG. 1) were compared using one-way analysis of variance (ANOVA) and multiple pairwise comparison procedures (Holm-Sidak). […]

pregnant rats = assay: Time of delivery of timed-pregnant rats (hours after 8 a.m. of day 22 of gestation); type: in vivo, Sprague-Dawley rats
Description: as §1, §2
Times of delivery (see also FIG. 4) of controls and various treatment groups were determined as hours after 8 a.m. of day 22 of gestation (FIG. 5). The expulsion of one pup was defined as delivery.
The cervical LIFs obtained at different times of gestation (FIG. 1) were compared using one-way analysis of variance (ANOVA) and multiple pairwise comparison procedures (Holm-Sidak). Student's t-test was used to compare the LIF results of a treatment group to its specific control group at any time in gestation and postpartum and also to determine the differences in delivery times (FIGS. 2, 3 and 5). A two-tailed probability value of P<0.05 was considered statistically significant.
FIG. 15 depicts delay of delivery times in timed pregnant rats treated with progesterone (P4) with different routes and vehicles. Treatment was started on day 13 of gestation and continued until delivery of pups or until delivery was blocked at […] (day 25) past day 22 of gestation. 8 am on day 22 is noted as hour 0 and delay is compared to control group treated only with vehicle. Treatment groups included: P4 in fish oil (vaginal, nasal, injection and topical groups), P4 in cocoa butter (rectal) and P4 in sesame oil (oral). All treatment groups received a total daily dose of 30 mg P4/day except the nasal and subcutaneous injection group which received 1 mg/day and 4 mg/day, respectively. […]

[1] = s.c. injection daily in sesame oil from day 13 (P4 4 mg, 17P 10 mg, R5020 2 mg)
[2] = RU-486 3 mg s.c. once on day 16

SMILES | cervical LIF / cervical ripening compared with vehicle controls (cervix of pregnant rats; 17P 10 mg s.c. daily from day 13) | effect on delivery (pregnant rats; [1]) | cervical ripening / softening (cervix of pregnant rats; [2]) | cervical LIF compared with vehicle controls (cervix of pregnant rats; RU-486 3 mg s.c. once on day 16, 24 and 72 hours after treatment) | cervical LIF compared with vehicle controls (cervix of pregnant rats; RU-486 3 mg s.c. once on day 16, 5 days after treatment) | animals delivered after 24 hours (pregnant rats; [2]) | delivery of the remaining two animals after treatment (pregnant rats; [2]) | time of induced preterm delivery after injection (pregnant rats; [2]) | cervical LIF / cervical ripening compared with vehicle controls (cervix of pregnant rats; vaginal promegestone (R5020) 1 mg bid in Replens from day 13) | effect on delivery (pregnant rats; vaginal bid from day 13 (P4 15 mg as Crinone; R5020 1 mg in Replens))
CCCCCC(=O)O[C@]1(C(C)=O)CC[C@H]2[C@@H]3CCC4=CC(=O)CC[C@]4(C)[C@H]3CC[C@@]21C [17P, 17-alpha-hydroxyprogesterone caproate] | cervix is rigid; also recorded: significantly higher (P<0.05) in the 17P treated group (until day 19 only); also recorded: delayed cervical ripening but not at term immediately preceding delivery; also recorded: only attenuated until day 19 of gestation; also recorded: partly delays ripening; also recorded: not significantly different from controls at day 21; also recorded: significant differences are only observed until day 19 of gestation | Delivery was not changed; also recorded: does not block delivery at all; also recorded: no significant effect on delaying term delivery | – | – | – | – | – | – | – | –
CC#C[C@]1(O)CC[C@H]2[C@@H]3CCC4=CC(=O)CCC4=C3[C@@H](c3ccc(N(C)C)cc3)C[C@@]21C [RU-486, mifepristone] | – | – | softened the cervix during preterm delivery; also recorded: cervical ripening occurs after 24 hours followed by preterm delivery | significantly lower (P<0.05) | higher | 4 of 6 | ≤ 48 h | 24 to 48 h | – | –
CCC(=O)[C@@]1(C)CC[C@H]2[C@@H]3CCC4=CC(=O)CCC4=C3CC[C@@]21C [promegestone (R5020), Promegestone] | – | inhibits delivery; also recorded: completely block delivery; also recorded: prevented delivery; also recorded: completely inhibited | – | – | – | – | – | – | cervix is rigid; also recorded: significantly higher (P<0.05) in the promegestone (R5020) treated group (until day 19 only); also recorded: delayed cervical ripening but not at term immediately preceding delivery; also recorded: only attenuated until day 19 of gestation; also recorded: not significantly different from controls; also recorded: significant differences are observed only until day 19 | inhibits delivery; also recorded: completely blocked delivery; also recorded: prevented delivery; also recorded: completely inhibited; also recorded: delivery is blocked

Source: patent US10449183B2, “Methods for inhibiting preterm labor and uterine contractility disorders and preventing cervical ripening” (DIGNITY HEALTH, priority 2010, dated 2019)
